Measured values from patent US5420156A, “Pharmacologically active compound and use” (Burroughs Wellcome Co., priority 1989, dated 1995).

Columns and labels:
[1] = Acute oral toxicity, rats; type: in vivo; details: up to 1000 mg/kg., p.o.
[2] = Acute oral toxicity, mice; type: in vivo; details: up to 1000 mg/kg., p.o.
[3] = system: elevation of blood pressure by orally ingested tyramine; assay: Response to orally ingested tyramine (elevation of blood pressure) in test mammals; type: in vivo; details: oral antidepressant doses prior to orally ingested tyramine
MAO-A (liver) = assay: In vivo inhibition of liver MAO-A (ex vivo assay after oral dosing); parameters: species or system rats
Method: (§1) To determine MAO inhibition in brains and livers of rats pretreated with a reversible inhibitor, it was necessary to use an assay procedure that minimized dilution of the compound. Thus, high concentrations of tissue homogenates were incubated for very short periods of time. For brain assays, initial tissue was 3-fold diluted into each assay. […] Further dilution of liver homogenates was necessary in order to obtain reliable data. Substrate concentrations were not saturating, but were chosen relative to Km values for serotonin and β-phenethylamine in order to give an estimate of MAO-A and MAO-B, respectively. Brains from pretreated male Sprague-Dawley rats (sacrificed 3 hours after oral dosing with the test compound) were homogenized in a buffer consisting of 0.1 M potassium phosphate and 5% sucrose (pH 7.4) at a 1:1 tissue weight/buffer volume ratio, using a motorized Teflon/glass homogenizer. MAO-A and MAO-B were determined by incubating 100 μL of tissue homogenate with 50 μL of a double-label substrate mixture to give final concentrations of [^3 H]serotonin, 0.4 mM (5C/mole) and [^14 C]β-phenethylamine, 20 μM (3C/mole). For blank assays, 100 μL portions of homogeneous were pre-incubated for 15 min. at 37° C. with pargyline (4 mM) before substrate addition. Incubations with substrate present were at 37° C. for 30 sec. Assay mixtures were then acidified and products extracted as in the above in vitro method (White and Glassman, loc. cit.).
Liver tissue was homogenized in the above phosphate-sucrose buffer at a 1:5 tissue weight/buffer volume ratio. Portions (100 μL) of homogenate were incubated with 50 μL of the above double-label substrate mixture. Blank assays included the same volume of homogenate pre-incubated with 4 mM pargyline for 15 min. at 37° C. After addition of substrates, mixtures were incubated at 37° C. for 30 sec, acidified, and products extracted as above.

MAO-B (brain) = assay: In vivo inhibition of brain MAO-B (ex vivo assay after oral dosing); parameters: species or system male Sprague-Dawley rats; details: 5, 10, 20 mg/kg p.o.
Method: (§2) To determine MAO inhibition in brains and livers of rats pretreated with a reversible inhibitor, it was necessary to use an assay procedure that minimized dilution of the compound. Thus, high concentrations of tissue homogenates were incubated for very short periods of time. For brain assays, initial tissue was 3-fold diluted into each assay. Because of the very high MAO activity. Further dilution of liver homogenates was necessary in order to obtain reliable data. Substrate concentrations were not saturating, but were chosen relative to Km values for serotonin and β-phenethylamine in order to give an estimate of MAO-A and MAO-B, respectively. Brains from pretreated male Sprague-Dawley rats (sacrificed 3 hours after oral dosing with the test compound) were homogenized in a buffer consisting of 0.1 M potassium phosphate and 5% sucrose (pH 7.4) at a 1:1 tissue weight/buffer volume ratio, using a motorized Teflon/glass homogenizer. MAO-A and MAO-B were determined by incubating 100 μL of tissue homogenate with 50 μL of a double-label substrate mixture to give final concentrations of [^3 H]serotonin, 0.4 mM (5C/mole) and [^14 C]β-phenethylamine, 20 μM (3C/mole). For blank assays, 100 μL portions of homogeneous were pre-incubated for 15 min. at 37° C. with pargyline (4 mM) before substrate addition. Incubations with substrate present were at 37° C. for 30 sec. […]

MAO-A [4] = assay: Kinetic mechanism of MAO-A inhibition in vitro (substrate serotonin or tyramine varied); type: biochemical, rat or human
Method: (§3) MAO was assayed with [^3 H]serotonin (0.2 mM, 5G/mole) and [^14 C]β-phenethylamine (10 μM, 3 G/mole) as substrate in a double-label assay (White and Glassman, J. Neurochem, 29:987-97 (1977)). Under these conditions, serotonin is selectively metabolised by MAO-A and β-phenethylamine by MAO-B.
For studies of the kinetic mechanism of inhibition, the above method was used except that a single substrate, serotonin or tyramine, was varied over a 10-fold concentration range that included the Km concentration. When tyramine was used as substrate, the extract was pretreated with deprenyl (1 μM) to inhibit all MAO-B activity. MAO-A activity was determined in the absence and presence of the compound under test at each substrate concentration in duplicate or triplicate assays.

MAO-A [5] = assay: In vitro inhibition of MAO-A in mitochondrial extracts of rat or human brain (double-label assay); type: biochemical
Method: as §3

MAO-A [6] = assay: Reversibility of binding to MAO-A by dialysis
MAO-B (liver) = assay: In vivo inhibition of liver MAO-B (ex vivo assay after oral dosing); parameters: species or system rats; details: 5, 10, 20 mg/kg p.o.
Method: as §2

MAO-A (brain) = assay: In vivo inhibition of brain MAO-A (ex vivo assay after oral dosing); parameters: species or system male Sprague-Dawley rats; details: for Percentage inhibition of MAO-A, Brain: 3 hours after dosing; for inhibition of brain MAO-A by the time of tyramine administration: single oral dose, 3 hours later (tyramine pressor study)
Method: as §1, with “([…])” for “(sacrificed 3 hours after oral dosing with the test compound)”

monoamine oxidase (MAO) = details: background; cited from earlier work

In the case of `CCc1cccc2c1S(=O)(=O)c1ccccc1O2` [Compound I, 1-Ethylphenoxathiin 10,10-dioxide], the “visible effects after acute doses” value [1] is reported as “No visible effects”, the “visible effects after acute doses” value [2] is reported as “No visible effects” and the “increase in response (elevation of blood pressure) to orally ingested tyramine” value [3] is reported as “No pharmacologically significant increase in response”. The “Percentage inhibition of MAO-A, Liver” value (MAO-A (liver); 5 mg/kg p.o.) was 32.8 ± 6.4%, the “Percentage inhibition of MAO-A, Liver” value (MAO-A (liver); 10 mg/kg p.o.) was 61.8 ± 4.4% and the “Percentage inhibition of MAO-A, Liver” value (MAO-A (liver); 20 mg/kg p.o.) was 78.9 ± 1.6%. For the same compound, the “inhibition of MAO-B, brain” value (MAO-B (brain)) was “no significant inhibition”, the “type of inhibition vs. the substrate serotonin or tyramine” value (MAO-A [4]; substrate serotonin or tyramine) was “competitive” and the Ki (MAO-A [4]; vs. substrate serotonin) was 10 nM. The Ki (MAO-A [4]; vs. substrate tyramine, extract pretreated with deprenyl (1 μM)) was 10 nM, the “inhibition of MAO-A (in words)” value (MAO-A [5]) was “potent selective inhibition of MAO-A” and the IC50 (MAO-A [5]; read-out: I50 (concentration producing 50% inhibition)) was 35 nM. For the same compound, the “binding to MAO-A, removal from its complex by dialysis” value (MAO-A [6]) was “reversibly bound to MAO-A”, the “inhibition of MAO-B, liver” value (MAO-B (liver)) was “no significant inhibition” and the “Percentage inhibition of MAO-A, Brain” value (MAO-A (brain); 5 mg/kg p.o.) was 18.5 ± 8.1%. The “Percentage inhibition of MAO-A, Brain” value (MAO-A (brain); 10 mg/kg p.o.) was 65.2 ± 6.6%, the “Percentage inhibition of MAO-A, Brain” value (MAO-A (brain); 20 mg/kg p.o.) was 82.4 ± 2.6% and the “time of peak inhibition of brain MAO-A” value (MAO-A (brain); oral dose of 20 mg/kg) was 1 to 6 h. The “inhibition of brain MAO-A at 24 hours after dosing” value (MAO-A (brain); oral dose of 20 mg/kg, 24 hours) was “negligible” and the “inhibition of brain MAO-A by the time of tyramine administration” value (MAO-A (brain)) was “approximately 80%”.

In the case of `NNCCc1ccccc1` [pheneizine, reference compound], the “type of MAO inhibition” value (monoamine oxidase (MAO)) is listed as “non-selective, irreversible inhibitors”, the “inhibition of liver MAO-A in tyramine pressor study” value (MAO-A (liver); single oral dose producing approximately 80% inhibition of brain MAO-A) is listed as no less than 90% and the “inhibition of brain MAO-A by the time of tyramine administration” value (MAO-A (brain)) is listed as “approximately 80%”.

For `N[C@@H]1C[C@H]1c1ccccc1` (relative stereo) [tranylcypromine], the “type of MAO inhibition” value (monoamine oxidase (MAO)) is listed as “non-selective, irreversible inhibitors”.

For `Cc1cc(C(=O)NNCc2ccccc2)no1` [isocarboxazid], the “type of MAO inhibition” value (monoamine oxidase (MAO)) is given as “non-selective, irreversible inhibitors”.
